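These data come from cells grown in 96-well plates and exposed to compound for 48 hours at five concentrations. GI50 = concentration required for 50% inhibition of growth.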 The source made the active and inactive calls. Cut-off read from the data, not from the text of the source: active = GI50 up to about 1.1 µM and inactive = higher.

Experimental findings from ChEMBL document CHEMBL1201862, “PubChem BioAssay data set” (2004) are described below.

Test systems include Malme-3M; SF-295; ACHN; NCI-H522; OVCAR-5; MCF7; U-251; MOLT-4; SW-620; HCC 2998; OVCAR-3; CAKI-1; SK-OV-3; SR; A498; OVCAR-4; HOP-62; Hs-578T; HT-29; SF-539.
Holding throughout (assay): NCI-60 cell line screen, 48 h

Turning to `N/C(=N\Nc1ccc(S(N)(=O)=O)cc1)c1cnccn1`, the GI50 in the assay with Malme-3M, with SF-295, in the assay with ACHN, in the assay on NCI-H522, in the assay with OVCAR-5 and in the assay on MCF7 was > 100 µM (inactive) in each case. The GI50 with U-251, in the assay with MOLT-4, with SW-620, with HCC 2998, with OVCAR-3 and in the assay on CAKI-1 was > 100 µM (inactive) each time. For the same compound, the GI50 in the assay with SK-OV-3, with SR, in the assay with A498, in the assay with OVCAR-4, in the assay on HOP-62 and with Hs-578T was > 100 µM (inactive) each time. Besides, in the assay with HT-29, the GI50 is > 100 µM (inactive).
Regarding `CC(=O)Oc1cc2c[n+](C)c3c4cc(OC(C)=O)c(OC(C)=O)cc4ccc3c2cc1OC(C)=O`, the GI50 with Malme-3M is 2.39 µM (inactive); in the assay with SF-295, 4.72 µM (inactive); in the assay with ACHN, 4.68 µM (inactive); in the assay with NCI-H522, 0.647 µM (active); in the assay on OVCAR-5, 17.3 µM (inactive); with MCF7 it was 3.17 µM (inactive). The GI50 in the assay on U-251 is 1.72 µM (inactive); with SW-620, 3.31 µM (inactive); in the assay on HCC 2998, 9.23 µM (inactive); with OVCAR-3, 2.24 µM (inactive); with CAKI-1, 4.48 µM (inactive); with SK-OV-3, 4.32 µM (inactive). The GI50 in the assay with SR was 2.22 µM (inactive); with A498, 7.5 µM (inactive); in the assay on HOP-62 it was 3.71 µM (inactive); in the assay on Hs-578T, > 100 µM (inactive); in the assay with HT-29, 2.72 µM (inactive).
On to `Oc1ccc(Cl)cc1-c1nc(S)nc(-c2ccccc2)c1Cl`, for which the GI50 in the assay on Malme-3M is > 100 µM (inactive); in the assay with SF-295, 28.6 µM (inactive); in the assay with ACHN, > 90.8 µM (inactive); in the assay with NCI-H522 it was > 31.6 µM (inactive); in the assay with OVCAR-5, > 100 µM (inactive); with MCF7, > 100 µM (inactive). Besides, the GI50 is 43.2 µM (inactive) in the assay on U-251; > 100 µM (inactive) with MOLT-4; > 100 µM (inactive) in the assay with SW-620; > 100 µM (inactive) in the assay on OVCAR-3; 48.1 µM (inactive) in the assay with CAKI-1; > 96.4 µM (inactive) with SK-OV-3. The GI50 was > 100 µM (inactive) in the assay with SR; > 10 µM (inactive) in the assay with SF-539; 51.9 µM (inactive) in the assay on A498; > 100 µM (inactive) with OVCAR-4; 31.1 µM (inactive) with HOP-62; 22.9 µM (inactive) in the assay on Hs-578T. Besides, the GI50 in the assay with HT-29 is > 31.6 µM (inactive).
In the case of `C[C@@H](NC(=O)[C@@H]1C[C@]1(C)CO)c1cccc2ccccc12`, the GI50 with Malme-3M, in the assay with SF-295, with ACHN, in the assay on OVCAR-5, with MCF7 and with U-251 was > 100 µM (inactive) in each case. The GI50 with MOLT-4, in the assay on SW-620, in the assay with HCC 2998, in the assay with OVCAR-3, in the assay on CAKI-1 and with SK-OV-3 was > 100 µM (inactive) each time. The GI50 with SR, in the assay with A498, with OVCAR-4, with HOP-62, in the assay on Hs-578T and in the assay on HT-29 was > 100 µM (inactive) each time.
For `O=C1/C(=C/c2cc3c(=O)c4ccccc4sc3s2)NC(=S)N1c1ccccc1`, the GI50 was > 100 µM (inactive) with Malme-3M; 66.4 µM (inactive) in the assay on SF-295; > 100 µM (inactive) with ACHN; > 100 µM (inactive) in the assay with NCI-H522; > 100 µM (inactive) with OVCAR-5; > 100 µM (inactive) in the assay with MCF7. Moreover, the GI50 in the assay on U-251 is 21 µM (inactive); with MOLT-4, 24.5 µM (inactive); in the assay on SW-620, > 100 µM (inactive); in the assay with HCC 2998, > 100 µM (inactive); with OVCAR-3 it was > 100 µM (inactive); in the assay on CAKI-1, > 100 µM (inactive). Also, the GI50 in the assay with SR is 12.8 µM (inactive); in the assay on A498, > 100 µM (inactive); in the assay with OVCAR-4, > 100 µM (inactive); in the assay with HOP-62 it was 5.01 µM (inactive); in the assay on Hs-578T, > 100 µM (inactive); in the assay on HT-29, > 100 µM (inactive).
On to `COC(=O)c1ccc(NCC2=CC(=O)C=CC2=O)cc1O`, for which the GI50 with Malme-3M was 10.6 µM (inactive); with SF-295, 17.7 µM (inactive); in the assay with ACHN it was 13.8 µM (inactive); in the assay on NCI-H522 it was 2.11 µM (inactive); with OVCAR-5 it was 18.8 µM (inactive); with MCF7 it was 20.8 µM (inactive). In addition, the GI50 was 36.5 µM (inactive) in the assay on U-251; 8.87 µM (inactive) in the assay on MOLT-4; 24.3 µM (inactive) in the assay with SW-620; 11.5 µM (inactive) with OVCAR-3; 18.6 µM (inactive) in the assay with CAKI-1; 20.4 µM (inactive) with SK-OV-3. For the same compound, the GI50 in the assay on SR is > 100 µM (inactive); in the assay with SF-539, 13.5 µM (inactive); in the assay with A498 it was 17.2 µM (inactive); in the assay with OVCAR-4, 16.6 µM (inactive); in the assay with HOP-62 it was 18.1 µM (inactive); with Hs-578T, 48.6 µM (inactive). Moreover, the GI50 in the assay on HT-29 is 19.6 µM (inactive).
As to `CCOC(=O)C1CCCc2sc(N)c(C#N)c21` (centres undefined), the GI50 with Malme-3M, in the assay with ACHN, in the assay on OVCAR-5, in the assay with MCF7, with U-251 and in the assay on MOLT-4 was > 100 µM (inactive) throughout. Also, the GI50 in the assay on SW-620, with HCC 2998, with SR, in the assay with A498, with HOP-62 and in the assay with Hs-578T was > 100 µM (inactive) each time. Also, the GI50 in the assay with HT-29 is > 100 µM (inactive).
`CCN(CCN(CC)C(=O)Nc1ccccc1)C(=O)Nc1ccccc1`: the GI50 with Malme-3M, in the assay with SF-295, in the assay with ACHN, in the assay with NCI-H522, with OVCAR-5 and in the assay on MCF7 was > 100 µM (inactive) throughout. In addition, the GI50 in the assay with U-251, in the assay on MOLT-4, in the assay on SW-620, with HCC 2998, with SK-OV-3 and in the assay on SR was > 100 µM (inactive) in each case. The GI50 in the assay on A498, in the assay on HOP-62, in the assay with Hs-578T and in the assay with HT-29 was > 100 µM (inactive) in each case.
